Measurements as given in US11760984B2, “CRISPR protein inhibitors” (THE BROAD INSTITUTE, INC., priority 2017, dated 2023).

How the values were obtained:
SpCas9 = SpCas9 (Streptococcus pyogenes serotype M1, UniProt Q99ZW2); assay: Cas9 nuclease activity in EGFP disruption assay (U2OS.eGFP.PEST cells); assay type: cell-based; parameters: host or cells: U2OS.eGFP-PEST; conditions: 10 μM
Method: (§1) Cas9 Nuclease activity in EGFP disruption assay. Approximately 200,000 U2OS.eGFP-PEST cells were nucleofected with 400 ng of SpCas9 (Addgene Plasmid #43861) and 40 ng of sgRNA (pFYF1320 EGFP Site #1, Addgene Plasmid #47511) expressing plasmids along with a Td-tomato-encoding plasmid using the SE Cell Line 4D-Nucleofector™ X Kit (Lonza) according to the manufacturer's protocol. Approximately 20,000 transfected cells/well in 3 replicates were plated in a 96-well plate (Corning® 3904). Cells were allowed to grow in the indicated amount of compound or DMSO for 24 h post transfection. Cells were then fixed using 4% paraformaldehyde and imaged with the HCS NuclearMask™ Blue Stain (Life Technologies) as the nuclear counter-staining agent. Imaging was performed with an IXM 137204 ImageXpress Automated High Content Microscope (Molecular Devices) at 10× magnification under three excitation channels (blue, green and red) with 9 acquiring sites per well. Images were analyzed in the MetaXpress software and data were plotted using GraphPad Prism 6. The Z′-value was calculated following the formula: […]
Cas9 Nuclease activity in EGFP disruption assay. In some embodiments, a quantitative human cell-based reporter assay that enables rapid quantitation of targeted nuclease activities is used to characterize off-target cleavage of CRISPR protein-based RNA guided endonucleases. In this assay, the activities of nucleases targeted to a single integrated EGFP reporter gene can be quantified by assessing loss of fluorescence signal in human U2OS.EGFP cells caused by inactivating frameshift insertion/deletion (indel) mutations introduced by error prone non-homologous end-joining (NHEJ) repair of nuclease-induced double-stranded breaks (DSBs).
as §1, with “Approximately” for “Cas9 Nuclease activity in EGFP disruption assay. Approximately”

SpCas9:gRNA complex = molecular target: T1, SpCas9:gRNA complex (Streptococcus pyogenes serotype M1, UniProt Q99ZW2); assay: 19F NMR binding assay; conditions: for Fractional Occupancy (1-Ibound/I0) / LW (linewidth of 19F signal): [Ligand] 50 μM
T1 construct: His6 (N, cleaved yes); made in house; host or cells: E. coli BL21 Star (DE3)
Method: (§2) NMR binding assay. All samples were prepared with 50 μM BRD7087 in 20 mM Tris buffer (pH=7.4) with varying concentrations of SpCas9:gRNA in a 3 mm NMR tube. Experiments were performed on a 600 MHz (19F: 564.71 MHz) Bruker Avance III NMR spectrometer equipped with a 5 mm QCI-F CryoProbe and a SampleJet for automated sample handling. To acquire spectra, a standard one-pulse 19F experiment with WALTZ-16 for proton decoupling during acquisition, a 5 second recycle delay, and 256 scans was used. All spectra were recorded at 280 K. NMR data were apodized with a 1 Hz exponential function prior to Fourier transformation. All spectra were baseline corrected; peak widths and intensities were extracted using the automated line-fitting feature provided with the MNova software package. Determination of the value of Kd was accomplished using least squares fitting to the expression given in Equation 8 in the paper by Shortridge et al.2.
Kd values obtained by NMR rely on the assumption that ligand binding is in fast-exchange, which typically holds true for ligands with Kd in the 0.5 μM to 20 mM range.
as §2, with “(^19F:” for “(19F:”, “^19F” for “19F”, “al.^2.” for “al.2.”

T1 sequence (Q99ZW2 whole entry, one chain of several): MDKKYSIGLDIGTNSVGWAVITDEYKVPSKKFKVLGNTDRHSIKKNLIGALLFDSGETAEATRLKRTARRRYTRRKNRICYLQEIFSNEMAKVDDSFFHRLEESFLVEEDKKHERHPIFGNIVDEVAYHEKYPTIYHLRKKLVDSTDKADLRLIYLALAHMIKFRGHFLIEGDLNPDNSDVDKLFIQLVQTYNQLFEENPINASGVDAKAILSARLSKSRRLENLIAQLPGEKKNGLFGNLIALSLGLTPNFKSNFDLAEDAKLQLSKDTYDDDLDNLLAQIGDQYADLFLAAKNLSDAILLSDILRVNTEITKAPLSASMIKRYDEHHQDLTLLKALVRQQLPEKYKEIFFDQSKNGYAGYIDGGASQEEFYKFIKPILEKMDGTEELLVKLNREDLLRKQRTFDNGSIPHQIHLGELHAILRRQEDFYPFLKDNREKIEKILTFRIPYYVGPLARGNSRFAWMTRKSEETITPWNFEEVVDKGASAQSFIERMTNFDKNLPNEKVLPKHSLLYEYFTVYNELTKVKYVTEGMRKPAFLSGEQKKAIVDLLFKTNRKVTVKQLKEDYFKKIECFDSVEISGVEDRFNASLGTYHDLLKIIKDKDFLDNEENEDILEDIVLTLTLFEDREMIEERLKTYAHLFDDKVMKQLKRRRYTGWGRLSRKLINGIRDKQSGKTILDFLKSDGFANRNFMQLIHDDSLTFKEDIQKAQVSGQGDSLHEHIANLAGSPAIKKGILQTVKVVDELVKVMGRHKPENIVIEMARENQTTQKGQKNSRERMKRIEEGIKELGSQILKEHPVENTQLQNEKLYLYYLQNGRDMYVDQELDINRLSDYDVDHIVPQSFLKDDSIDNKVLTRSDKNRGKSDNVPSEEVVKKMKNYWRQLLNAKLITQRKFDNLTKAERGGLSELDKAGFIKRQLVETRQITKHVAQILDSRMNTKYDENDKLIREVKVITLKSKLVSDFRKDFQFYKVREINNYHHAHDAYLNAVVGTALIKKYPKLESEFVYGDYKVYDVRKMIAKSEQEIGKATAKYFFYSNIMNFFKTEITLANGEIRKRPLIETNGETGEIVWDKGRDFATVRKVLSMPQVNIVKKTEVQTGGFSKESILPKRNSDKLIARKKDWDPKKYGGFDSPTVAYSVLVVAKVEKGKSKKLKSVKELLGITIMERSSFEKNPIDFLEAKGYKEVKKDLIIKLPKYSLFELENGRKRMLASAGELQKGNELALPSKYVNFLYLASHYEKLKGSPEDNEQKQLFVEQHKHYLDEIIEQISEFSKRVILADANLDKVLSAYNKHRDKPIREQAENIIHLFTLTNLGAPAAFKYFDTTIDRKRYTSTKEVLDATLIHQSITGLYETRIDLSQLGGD
Sequence of SpCas9 (Q99ZW2 whole entry): as the sequence (Q99ZW2 whole entry, one chain of several) above

OC[C@H]1Nc2ccc(-c3cccc(F)c3)cc2[C@H]2[C@@H]1CCN2Cc1ccncc1 [BRD7087, ((3aR,4S,9bR)-8-(3-Fluorophenyl)-1-(pyridin-4-ylmethyl)-2,3,3a,4,5,9b-hexahydro-1H-pyrrolo[3,2-c]quinolin-4-yl)methanol]
inhibition at 10 µM (SpCas9): 44% | inhibition of SpCas9 activity (SpCas9): 44% | Kd (SpCas9:gRNA complex; 50 μM ligand, 20 mM Tris pH 7.4, 280 K, read-out: binding constant Kd (method of Shortridge et al., peak intensities)): ~2200 nM | binding by differential line broadening of 19F signal (SpCas9:gRNA complex; 50 μM ligand, broadening from 0.75 μM SpCas9:gRNA): relatively tight binding | Fractional Occupancy (1-Ibound/I0) (SpCas9:gRNA complex; [Protein:gRNA] 0.75 μM): 0.1307 | LW (linewidth of 19F signal) (SpCas9:gRNA complex; [Protein:gRNA] 0.75 μM): 4.3 Hz | Fractional Occupancy (1-Ibound/I0) (SpCas9:gRNA complex; [Protein:gRNA] 1.0 μM): 0.1817 | LW (linewidth of 19F signal) (SpCas9:gRNA complex; [Protein:gRNA] 1.0 μM): 4.6 Hz | Fractional Occupancy (1-Ibound/I0) (SpCas9:gRNA complex; [Protein:gRNA] 1.25 μM): 0.3042 | LW (linewidth of 19F signal) (SpCas9:gRNA complex; [Protein:gRNA] 1.25 μM): 5.3 Hz | Fractional Occupancy (1-Ibound/I0) (SpCas9:gRNA complex; [Protein:gRNA] 1.5 μM): 0.3436 | LW (linewidth of 19F signal) (SpCas9:gRNA complex; [Protein:gRNA] 1.5 μM): 5.9 Hz | Fractional Occupancy (1-Ibound/I0) (SpCas9:gRNA complex; [Protein:gRNA] 1.75 μM): 0.4015 | LW (linewidth of 19F signal) (SpCas9:gRNA complex; [Protein:gRNA] 1.75 μM): 6.3 Hz
